Among the data in PubChem BioAssay AID248 (DTP/NCI, 2004) are T/C values, retold here.

Molecules are shown by their SMILES. “And” between values parts separate entries of the source, which are not always exact repeats. Equal entries are not always repeated. Toxic doses and inconclusive results are not listed.

In the experiment the test system is L1210 leukemia ip in BDF1 mice, survival T/C. Description: NCI In Vivo Anticancer Drug Screen. Data for tumor model L1210 Leukemia (intraperitoneal) in B6D2F1 (BDF1) mice. The conditions noted are these: endpoint: mean survival time, higher = longer survival. Summed up:
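Mice bearing the transplanted tumor received compound or vehicle. Survival of the treated group was divided by that of the vehicle-treated control group to give the ratio.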

[1] abbreviates: dose: 100.0 mg/kg/injection, schedule: Q01DX001 (ip), vehicle: saline.
Where [2] appears, read: dose: 200.0 mg/kg/injection, schedule: Q01DX001 (ip), vehicle: saline.
[3] abbreviates: dose: 400.0 mg/kg/injection, schedule: Q01DX001 (ip), vehicle: saline.
[4] abbreviates: dose: 25.0 mg/kg/injection, schedule: Q01DX009 (ip), vehicle: Klucel (hydroxypropylcellulose) (HPC).
[5] abbreviates: dose: 50.0 mg/kg/injection, schedule: Q01DX009 (ip), vehicle: Klucel (hydroxypropylcellulose) (HPC).
[6] abbreviates: dose: 100.0 mg/kg/injection, schedule: Q01DX009 (ip), vehicle: Klucel (hydroxypropylcellulose) (HPC).
The mark [7] stands for this setting: dose: 100.0 mg/kg/injection, schedule: Q04DX003 (ip), vehicle: saline with Tween-80.
Setting [8] is: dose: 200.0 mg/kg/injection, schedule: Q04DX003 (ip), vehicle: saline with Tween-80.
Where [9] appears, read: dose: 400.0 mg/kg/injection, schedule: Q04DX003 (ip), vehicle: saline with Tween-80.
The mark [10] stands for this setting: dose: 100.0 mg/kg/injection, schedule: Q01DX009 (ip), vehicle: saline with Tween-80.
The mark [11] stands for this setting: dose: 100.0 mg/kg/injection, schedule: Q04DX003 (ip), vehicle: saline.
Where [12] appears, read: dose: 200.0 mg/kg/injection, schedule: Q04DX003 (ip), vehicle: saline.
The mark [13] stands for this setting: dose: 400.0 mg/kg/injection, schedule: Q04DX003 (ip), vehicle: saline.
The mark [14] stands for this setting: dose: 200.0 mg/kg/injection, schedule: Q01DX009 (ip), vehicle: saline with Tween-80.

Regarding `CCCCOC(=O)Nc1ccc(OCC)cc1`, the T/C is 107 % of control under setting [1], 95 % of control under setting [2] and 93 % of control under setting [3].

For `O=CNn1cn[nH]c1=S`, the T/C reads like this: (dose: 100.0 mg/kg/injection, schedule: Q01DX001 (ip), vehicle: carboxymethylcellulose (CMC)) 95 % of control; (dose: 200.0 mg/kg/injection, schedule: Q01DX001 (ip), vehicle: carboxymethylcellulose (CMC)) 98 % of control; (dose: 400.0 mg/kg/injection, schedule: Q01DX001 (ip), vehicle: carboxymethylcellulose (CMC)) 95 % of control.

Consider `COc1cc(C)c2ccccc2n1`, for which the T/C by setting is: (dose: 100.0 mg/kg/injection, schedule: Q01DX001 (ip), vehicle: saline with Tween-80) 100 % of control; under setting [1], 104 % of control; (dose: 200.0 mg/kg/injection, schedule: Q01DX001 (ip), vehicle: saline with Tween-80) 102 % of control; under setting [2], 103 % of control; (dose: 400.0 mg/kg/injection, schedule: Q01DX001 (ip), vehicle: saline with Tween-80) 94 % of control; under setting [3], 98 % of control.

Turning to `Nc1cccc(Br)n1`, the T/C (dose: 37.5 mg/kg/injection, schedule: Q04DX002 (ip), vehicle: saline with Tween-80) is 88 % of control; the T/C (dose: 75.0 mg/kg/injection, schedule: Q04DX002 (ip), vehicle: saline with Tween-80) is 91 % of control; the T/C (dose: 150.0 mg/kg/injection, schedule: Q04DX002 (ip), vehicle: saline with Tween-80) is 104 % of control.

Turning to `O=C(N/N=C(\C=N\NC(=O)c1ccccc1)CC(O)CO)c1ccccc1` (stereo not given), the T/C was 93 % of control under setting [4]; 91 % of control under setting [5]; 91 % of control under setting [6]; 94 % of control under setting [7]; 93 % of control under setting [8].

Take `CCCCC(CC)NC(=O)c1ccc(OC)cc1` (stereo not given): the T/C (dose: 12.5 mg/kg/injection, schedule: Q01DX009 (ip), vehicle: Klucel (hydroxypropylcellulose) (HPC)) is 106 % of control; the T/C under setting [4] was 101 % of control; the T/C (dose: 25.0 mg/kg/injection, schedule: Q04DX003 (ip), vehicle: Klucel (hydroxypropylcellulose) (HPC)) was 105 % of control; the T/C under setting [5] was 95 % of control; the T/C (dose: 50.0 mg/kg/injection, schedule: Q04DX003 (ip), vehicle: Klucel (hydroxypropylcellulose) (HPC)) was 103 % of control; the T/C under setting [6] was 101 % of control. Besides, the T/C is 100 % of control (dose: 100.0 mg/kg/injection, schedule: Q04DX003 (ip), vehicle: Klucel (hydroxypropylcellulose) (HPC)); 103 % of control (dose: 200.0 mg/kg/injection, schedule: Q04DX003 (ip), vehicle: Klucel (hydroxypropylcellulose) (HPC)); 100 % of control (dose: 400.0 mg/kg/injection, schedule: Q04DX003 (ip), vehicle: Klucel (hydroxypropylcellulose) (HPC)).

Turning to `N#CCCP(CCC#N)CCP(CCC#N)CCC#N`, the T/C was 96 % of control under setting [7], 89 % of control under setting [8] and 86 % of control under setting [9].

Consider `O=C(O)C1Cc2nc[nH]c2CN1CO` (stereo not given), for which the T/C (dose: 12.5 mg/kg/injection, schedule: Q01DX009 (ip), vehicle: saline with Tween-80) was 122 % of control; the T/C (dose: 25.0 mg/kg/injection, schedule: Q01DX009 (ip), vehicle: saline with Tween-80) was 113 % of control; the T/C under setting [10] was 263 % of control.

Consider `O=[N+]([O-])c1ccc(/C=N/c2nn[nH]n2)cc1` (tested in a mixture with another compound), for which the T/C under setting [11] was 98 % of control, the T/C under setting [12] was 100 % of control and the T/C under setting [13] is 96 % of control.

Take `CCC(=O)c1ccc(NC(N)=S)cc1`: the T/C by setting is: (dose: 20.0 mg/kg/injection, schedule: Q01DX005 (ip), vehicle: saline with Tween-80) 94 % of control; (dose: 40.0 mg/kg/injection, schedule: Q01DX005 (ip), vehicle: saline with Tween-80) 95 % of control; (dose: 80.0 mg/kg/injection, schedule: Q01DX005 (ip), vehicle: saline with Tween-80) 94 % of control; (dose: 160.0 mg/kg/injection, schedule: Q01DX005 (ip), vehicle: saline with Tween-80) 101 % of control.

Turning to `COC1OC(CCl)C(Cl)CC1OC(C)=O` (stereo not given), the T/C runs as follows: under setting [11], 95 % of control; under setting [12], 90 % of control; under setting [13], 98 % of control.

Consider `CCOC(=O)[C@H]1CCC[C@@H](NC(=O)N(CCCl)N=O)C1`, for which the T/C is 108 % of control (dose: 5.0 mg/kg/injection, schedule: Q01DX001 (ip), vehicle: other); 123 % of control (dose: 10.0 mg/kg/injection, schedule: Q01DX001 (ip), vehicle: other); 194 % of control (dose: 20.0 mg/kg/injection, schedule: Q01DX001 (ip), vehicle: other); 329 % of control (dose: 31.0 mg/kg/injection, schedule: Q01DX001 (ip), vehicle: other); 305 % of control (dose: 40.0 mg/kg/injection, schedule: Q01DX001 (ip), vehicle: other); 254 % of control (dose: 62.0 mg/kg/injection, schedule: Q01DX001 (ip), vehicle: other).

For the molecule `CCCCOP1(=O)C=C(C)CC1` (stereo not given), the T/C reads like this: under setting [7], 90 % of control; under setting [8], 97 % of control; under setting [9], 92 % of control.

As to `COC(=O)C(C)NC(=O)C(COC1OC(COC(C)=O)C(OC(C)=O)C(OC(C)=O)C1NC(C)=O)NC(=O)OCc1ccccc1` (stereo not given), the T/C by setting is: (dose: 50.0 mg/kg/injection, schedule: Q04DX002 (ip), vehicle: Klucel (hydroxypropylcellulose) (HPC)) 98 % of control; (dose: 100.0 mg/kg/injection, schedule: Q04DX002 (ip), vehicle: Klucel (hydroxypropylcellulose) (HPC)) 91 % of control; (dose: 200.0 mg/kg/injection, schedule: Q04DX002 (ip), vehicle: Klucel (hydroxypropylcellulose) (HPC)) 98 % of control.

For the molecule `Fc1ccccc1CSc1ncnc2nc[nH]c12`, the T/C (dose: 40.0 mg/kg/injection, schedule: Q01DX009 (ip), vehicle: saline) was 115 % of control; the T/C (dose: 150.0 mg/kg/injection, schedule: Q01DX009 (ip), vehicle: saline) is 157 % of control; the T/C (dose: 175.0 mg/kg/injection, schedule: Q01DX001 (ip), vehicle: saline) was 117 % of control and 118 % of control; the T/C (dose: 265.0 mg/kg/injection, schedule: Q01DX001 (ip), vehicle: saline) is 112 % of control and 120 % of control; the T/C under setting [3] was 122 % of control; the T/C (dose: 600.0 mg/kg/injection, schedule: Q01DX001 (ip), vehicle: saline) is 100 % of control.

Turning to `CC1(C)OC2OC(/C=C\C=O)C3OC(C)(C)OC3C2O1` (stereo not given), the T/C runs as follows: (dose: 100.0 mg/kg/injection, schedule: Q04DX003 (ip), vehicle: acetone) 100 % of control; (dose: 200.0 mg/kg/injection, schedule: Q04DX003 (ip), vehicle: acetone) 104 % of control.

For the molecule `CC1N=C(c2ccccc2)C(c2ccccc2)=NC1C` (stereo not given), the T/C under setting [7] was 94 % of control, the T/C under setting [8] is 101 % of control and the T/C under setting [9] is 101 % of control.

Regarding `CCCC(C)C(=O)Nc1cccc(OC(=O)NC(C)(C)C)c1` (stereo not given), the T/C runs as follows: under setting [10], 92 % of control; under setting [14], 89 % of control; (dose: 400.0 mg/kg/injection, schedule: Q01DX009 (ip), vehicle: saline with Tween-80) 87 % of control.

Consider `COc1cc(/C=C/C(C)=O)ccc1O`, for which the T/C by setting is: (dose: 50.0 mg/kg/injection, schedule: Q01DX009 (ip), vehicle: saline with Tween-80) 101 % of control; under setting [10], 101 % of control; under setting [7], 93 % of control; under setting [14], 98 % of control; under setting [8], 98 % of control; under setting [9], 98 % of control.

As for `O=C(Nc1ccccc1)OCC(F)(F)F`, the T/C is, setting by setting: (dose: 100.0 mg/kg/injection, schedule: Q04DX002 (ip), vehicle: gum acacia) 105 % of control; (dose: 200.0 mg/kg/injection, schedule: Q04DX002 (ip), vehicle: gum acacia) 108 % of control; (dose: 400.0 mg/kg/injection, schedule: Q04DX002 (ip), vehicle: gum acacia) 101 % of control.

`NC(=O)Nc1cc(N)cc(NC(N)=O)c1`: the T/C under setting [11] is 96 % of control, the T/C under setting [12] is 107 % of control and the T/C under setting [13] was 106 % of control.

For `CCN(CC)C(=O)C1CCCCC1C` (stereo not given), the T/C was 111 % of control (dose: 100.0 mg/kg/injection, schedule: Q04DX002 (ip), vehicle: saline) and 105 % of control (dose: 200.0 mg/kg/injection, schedule: Q04DX002 (ip), vehicle: saline).
